Reference: US8088887B2, “Peptide-conjugates that bind to VEGF-stimulated or tumor vasculature and methods of treatment” (Academia Sinica, priority 2007, dated 2012)
“Also recorded” adds a separate entry of the source.

Experiments:
[1] = system: oral cancer xenografts; assay: Peptide competitive inhibition of IVO-2 phage homing, oral cancer xenografts; type: in vivo, SCID mice
[2] = system: NSCLC tumor mass (CL1-5-derived tumors); assay: Peptide competitive inhibition of PC5-52 phage homing, lung cancer xenografts; type: in vivo, SCID mice
Description: To investigate the targeting ability of PC5-52, phages were injected into the tail vein of SCID mice bearing human lung cancer cell-derived tumors and recovered after perfusion. We determined the titers of the phages in tumor mass and other normal organs. The phage clones, or control helper phage (insertless phage), were injected into the tail vein (i.v.) of SCID mice bearing human lung cancer tumor xenografts for 8 min or 24 h. After perfusion, xenograft tumors and organs were removed and the recovered phage titered. In peptide competitive inhibition experiments, described below, phage clones were co-injected with 100 μg synthetic peptide. After injection of candidate or control phage clones, the organs and tumors were removed and divided into two parts. One part was titered by ER2738, and another part was embedded in Optimal Cutting Temperature (OCT, Tissue-Tek, NL, USA). The OCT-embedded frozen tissues were sectioned at 5 microns and transferred to cold PBS buffer. Then, the sections were fixed with acetone-methanol (1:1), washed with PBS and immersed in blocking buffer (1% BSA in PBS) for 1 h. The blocked samples were then incubated with rat anti-mouse CD31 (BD Pharmingen, Mass., USA.), rabbit anti-rat Ab (Stressgen, Canada) and immersed in Rhodamine labeled goat anti-rabbit antibody (Jackson ImmunoResearch, Pa., USA.). […]

Sequence | inhibition of IVO-2 homing to tumor tissue ([1]; co-injected peptide, FIG. 2D) | inhibition of PC5-52 homing to NSCLC tumor mass ([2]; 100 μg peptide co-injected with phage) [%] | inhibition of tumor homing ability of PC5-52 ([2]; co-injected peptide, CL1-5-derived tumors, FIG. 2B/4B) | inhibition of IVO-2 homing to oral cancer xenografts ([1]; coinjection of 100 μg peptide) [%]
RLLDTNRPLLPY [Control peptide, synthetic control peptide, reference compound] | could not inhibit |  |  | 
SVSVGMKPSPRP [SP5-52] |  | 97 | inhibited markedly; also recorded: markedly inhibited | 95.9
